Laboratory results as given in US12377094B2, “Therapeutic compositions and methods for treating checkpoint inhibitor-resistant tumors using plinabulin-based combination therapies” (BeyondSpring Pharmaceuticals, Inc., priority 2021, dated 2025).

Assay: Dose-escalation Phase I study of nivolumab, ipilimumab and plinabulin: safety (DLT, RP2D, treatment-related AEs, irAEs)
Format: in vivo, human
Settings: with nivolumab 1 mg/kg and ipilimumab 3 mg/kg, IV day 1 of 21 day cycle; dose-level 2
Description: In a dose-escalation Phase I study, patients with recurrent extensive-stage small cell lung cancer (SCLC) who had progressed on prior platinum-based chemotherapy were enrolled using a 3+3 design. The primary objective was to determine dose-limiting toxicities (DLT's) and recommended Phase 2 dose (RP2D). Patients were evaluable for DLT if they received at least two cycles of therapy; DLT period was defined as the first six weeks. Secondary endpoints were ORR, PFS and frequency of irAEs. Correlative analysis included inflammatory biomarkers: hsCRP, ESR, SAA and haptoglobin.
Patients received nivolumab (1 mg/kg), ipilimumab (3 mg/kg) and plinabulin (as per dose escalation schema) IV on day 1 of each 21 day cycle. After completion of 4 cycles, patients continued therapy with nivolumab (240 mg) and plinabulin every 2 weeks till progression or intolerable toxicity. Patients were evaluable for DLT if they received at least 2 cycles of therapy; DLT period was defined as the first 6 weeks from C1D1.

For `CC(C)(C)c1[nH]cnc1/C=c1\[nH]c(=O)/c(=C/c2ccccc2)[nH]c1=O` [plinabulin, (3Z,6Z)-3-Benzylidene-6-{[5-(2-methyl-2-propanyl)-1H-imidazol-4-yl]methylene}-2,5-piperazinedione], the “recommended Phase 2 dose (RP2D) of plinabulin” value was 30 mg/m2.
